System: F1 Sprague-Dawley rats
Assay: Pilot postnatal study, GD14-18 oral maternal dosing
Assay type: in vivo
Experimental: A single-dose level pilot study utilizing time-mated SD rats was conducted to examine the potential postnatal effects of in utero exposure to HFPO-DA from a similar dosing interval to the fetal studies (Figure 1B). The study consisted of dams exposed to oral daily dosing with either water vehicle or 125mg/kg HFPO-DA ( n=3 for each) from GD14–18. […] Dams gave birth naturally beginning on the morning of GD22 [i.e., postnatal day (PND) 0]. On PND2 all pups were sexed, weighed, and anogenital distance (AGD) was measured using a Leica MZ6 stereomicroscope (Leica Microsystems) fitted with an ocular micrometer. On PND13, the offspring were sexed, weighed, and evaluated for retention of female-like nipples/areolae. On PND27, the dams were euthanized, uterine implantation sites were scored, pups were weaned to two animals per cage by sex and treatment group, and food was changed to NTP2000 rodent diet. Beginning on PND31 for female offspring and PND41 for male offspring, individuals were evaluated daily for markers of pubertal onset, vaginal opening (VO) for females and balano-preputial separation (BPS) for males.
Beginning at PND128, adult F1 females were weighed, euthanized via decapitation, and examined via necropsy for any reproductive tract malformations and tissue weights were collected for uterus, paired ovaries, liver, paired kidneys, and visceral adipose tissue. Similarly, beginning at PND146 adult F1 males were weighed, euthanized, and examined for reproductive tract malformations and weights were collected for all relevant reproductive tissues. Male necropsy included weights of glans penis, ventral prostate, paired seminal vesicles, paired testes, paired epididymides, levator ani–bulbocavernosus (LABC), paired bulbourethral (Cowper’s) glands, paired kidneys, visceral adipose tissue, and epididymal adipose tissue. […] Total sperm counts in epididymal sections were measured using a Multisizer 3 Coulter counter (Beckman Coulter).

[1] = adult F1 female, 125 mg/kg/d, individual means
[2] = adult F1 female, 125 mg/kg/d, litter means
[3] = adult F1 male, 125 mg/kg/d, individual means
[4] = adult F1 male, 125 mg/kg/d, litter means

Which results are given for `O=C(O)C(F)(OC(F)(F)C(F)(F)C(F)(F)F)C(F)(F)F` (stereo not shown) [HFPO-DA, Hexafluoropropylene oxide dimer acid]?
viable pups per litter versus control dams (125 mg/kg): equal numbers of viable pups; pup survival (125 mg/kg GD14-18): no effect on pup survival; Female AGD on PND2 (125 mg/kg/d, individual means): 1.5 ± 0.0 mm; Female BW at VO (125 mg/kg/d, individual means): 123.4 ± 2.3 g; Female BW on PND27 (125 mg/kg/d, individual means): 79.1 ± 1.4 g; Female NR on PND13 (125 mg/kg/d, individual means): 12.0 ± 0.0; Female pup BW on PND2 (125 mg/kg/d, individual means): 7.5 ± 0.1 g; Female pup BW on PND13 (125 mg/kg/d, individual means): 28.7 ± 0.3 g; Male AGD on PND2 (125 mg/kg/d, individual means): 3.7 ± 0.1 mm; Male BW at PPS (125 mg/kg/d, individual means): 211.4 ± 3.7 g; Male BW on PND27 (125 mg/kg/d, individual means): 81.1 ± 1.6 g; Male NR on PND2 (125 mg/kg/d, individual means): 0.1 ± 0.1; Male pup BW on PND2 (125 mg/kg/d, individual means): 7.8 ± 0.1 g; Male pup BW on PND13 (125 mg/kg/d, individual means): 29.3 ± 0.3 g; Dam BW GD14 (125 mg/kg/d, litter means): 325.5 ± 5.2 g; Dam BW GD18 (125 mg/kg/d, litter means): 354.9 ± 9.0 g; Dam BW gain (125 mg/kg/d, litter means): 29.4 ± 6.0 g; Female AGD on PND2 (125 mg/kg/d, litter means): 1.5 ± 0.1 mm; Female BW at VO (125 mg/kg/d, litter means): 124.3 ± 4.2 g; Female BW on PND27 (125 mg/kg/d, litter means): 78.2 ± 3.5 g; Female NR on PND13 (125 mg/kg/d, litter means): 12.0 ± 0.0; Female pup BW on PND2 (125 mg/kg/d, litter means): 7.5 ± 0.1 g; Female pup BW on PND13 (125 mg/kg/d, litter means): 28.7 ± 0.1 g; Male AGD on PND2 (125 mg/kg/d, litter means): 3.7 ± 0.1 mm; Male BW at PPS (125 mg/kg/d, litter means): 214.6 ± 8.0 g; Male BW on PND27 (125 mg/kg/d, litter means): 83.3 ± 4.7 g; Male NR on PND2 (125 mg/kg/d, litter means): 0.1 ± 0.1; Male pup BW on PND2 (125 mg/kg/d, litter means): 7.8 ± 0.1 g; Male pup BW on PND13 (125 mg/kg/d, litter means): 29.5 ± 0.5 g; No. implants (125 mg/kg/d, litter means): 13.0 ± 1.0; No. pups on PND2 (125 mg/kg/d, litter means): 12.7 ± 0.7; Post-implantation loss on PND2 (125 mg/kg/d, litter means): 2.2 ± 2.2%; adult female AGD and liver weight (125 mg/kg, individual basis): significantly smaller AGD and lower liver weight; weights of right, left, paired testes, right, left, paired epididymides, epididymal adipose tissue (125 mg/kg, individual basis): significantly lower tissue weights; female offspring body weight (PND2, PND27, at VO) (125 mg/kg, individual pup basis): significantly lower than controls; adult female necropsy end points (125 mg/kg, litter means basis): no significant differences; end points measured through the onset of puberty (125 mg/kg, litter means basis): no significant differences; right epididymis tissue weight, adult males (125 mg/kg, litter means basis): significantly lower; AGD [1]: 16.7 ± 0.7 mm; Body weight [1]: 370.3 ± 12.3 g; Liver [1]: 11.3 ± 0.3 g; Paired kidneys [1]: 2.1 ± 0.1 g; Paired ovaries [1]: 123.2 ± 3.6 mg; Uterus [1]: 635.6 ± 48.9 mg; Visceral adipose tissue [1]: 25.2 ± 2.4 g; AGD [2]: 16.8 ± 0.5 mm; Body weight [2]: 374.0 ± 25.0 g; Liver [2]: 11.4 ± 0.5 g; Paired kidneys [2]: 2.1 ± 0.1 g; Paired ovaries [2]: 122.5 ± 8.6 mg; Uterus [2]: 635.4 ± 74.3 mg; Visceral adipose tissue [2]: 25.1 ± 4.6 g; Body weight [3]: 676.5 ± 10.6 g; Cauda sperm [3]: 159.7 ± 4.7 106; Corpus/caput sperm [3]: 72.6 ± 2.3 106; Epididymal adipose tissue [3]: 7.8 ± 0.5 g; Glans penis [3]: 134.5 ± 3.0 mg; LABC [3]: 1.6 ± 0.0 g; Left epididymis [3]: 668.1 ± 10.4 mg; Left testis [3]: 1.9 ± 0.0 g; Liver [3]: 20.1 ± 0.4 g; Paired Cowper’s glands [3]: 163.4 ± 5.2 mg; Paired epididymides [3]: 1331.2 ± 21.2 mg; Paired kidneys [3]: 3.4 ± 0.1 g; Paired seminal vesicles [3]: 1.8 ± 0.1 g; Paired testes [3]: 3.8 ± 0.1 g; Right cauda [3]: 310.5 ± 6.2 mg; Right corpus/caput [3]: 352.6 ± 7.1 mg; Right epididymis [3]: 663.1 ± 11.2 mg; Right testis [3]: 1.9 ± 0.0 g; Total epididymal sperm [3]: 185.8 ± 4.7 106; Ventral prostate [3]: 682.1 ± 32.7 mg; Visceral adipose tissue [3]: 25.8 ± 1.5 g; Body weight [4]: 682.6 ± 13.4 g; Cauda sperm [4]: 160.0 ± 3.4 106; Corpus/caput sperm [4]: 72.0 ± 2.8 106; Epididymal adipose tissue [4]: 8.2 ± 1.0 g; Glans penis [4]: 135.0 ± 1.5 mg; LABC [4]: 1.5 ± 0.1 g; Left epididymis [4]: 664.2 ± 12.5 mg; Left testis [4]: 1.9 ± 0.0 g; Liver [4]: 20.2 ± 0.4 g; Paired Cowper’s glands [4]: 165.6 ± 9.7 mg; Paired epididymides [4]: 1323.7 ± 24.3 mg; Paired kidneys [4]: 3.4 ± 0.0 g; Paired seminal vesicles [4]: 1.8 ± 0.1 g; Paired testes [4]: 3.8 ± 0.1 g; Right cauda [4]: 309.0 ± 6.0 mg; Right corpus/caput [4]: 350.5 ± 5.9 mg; Right epididymis [4]: 659.5 ± 11.8 mg; Right testis [4]: 1.9 ± 0.0 g; Total epididymal sperm [4]: 185.6 ± 2.0 106; Ventral prostate [4]: 678.7 ± 30.1 mg; Visceral adipose tissue [4]: 26.8 ± 2.4 g
